From ChEMBL document CHEMBL1201862, “PubChem BioAssay data set” (2004) come the findings set out here.

Some test systems named below: CAKI-1; CCRF-CEM; K562; KM12; MDA-N; Malme-3M; NCI-H226; NCI-H460; OVCAR-8; PC-3; RPMI-8226; RXF 393; SF-539; SK-OV-3; SNB-19; SW-620; UACC-62; UO-31; M14; SK-MEL-28.
What all share (assay): DTP human tumour cell line panel, 48 h

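48-hour exposure; five concentrations; linearly interpolated endpoints. GI50 is the concentration that inhibits growth by half.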 The source made the active and inactive calls. Cut-off read from the data, not from the text of the source: active = GI50 up to about 1.1 µM and inactive = higher.

As for `COc1ccc(OC)c(-c2cn3c(n2)sc2ccccc23)c1`, the GI50 with CAKI-1, with CCRF-CEM, in the assay with K562, in the assay with KM12, with MDA-N and in the assay with Malme-3M was > 100 µM (inactive) throughout. Moreover, the GI50 was > 100 µM (inactive) in the assay on NCI-H226; > 100 µM (inactive) in the assay with NCI-H460; 94.8 µM (inactive) in the assay on OVCAR-8; 30.6 µM (inactive) in the assay on PC-3; > 100 µM (inactive) in the assay with RPMI-8226; > 100 µM (inactive) in the assay with RXF 393. Further, the GI50 was > 100 µM (inactive) in the assay with SF-539; > 100 µM (inactive) with SK-OV-3; > 100 µM (inactive) in the assay with SNB-19; > 100 µM (inactive) with SW-620; 64.1 µM (inactive) in the assay on UACC-62; > 100 µM (inactive) with UO-31.

Regarding `CC(=N\N)/C(C)=N/N=C(C)/C(C)=N/N=C(C)/C(C)=N/N=C(C)/C(C)=N/N`, the GI50 in the assay with CAKI-1 is > 100 µM (inactive); in the assay on CCRF-CEM, > 100 µM (inactive); with K562 it was 37.8 µM (inactive); with KM12, > 100 µM (inactive); with M14 it was > 100 µM (inactive); with MDA-N, > 100 µM (inactive). In addition, the GI50 in the assay with Malme-3M, in the assay with NCI-H226, in the assay with NCI-H460, in the assay with OVCAR-8, in the assay on PC-3 and with RPMI-8226 was > 100 µM (inactive) throughout. The GI50 with RXF 393, with SF-539, in the assay with SK-MEL-28, in the assay on SK-OV-3, in the assay with SNB-19 and in the assay with SW-620 was > 100 µM (inactive) each time. The GI50 in the assay on UO-31 is > 100 µM (inactive).

Take `CC(C)(C)OC(=O)[C@H]1CCC(=S)N1Cc1ccccc1`: the GI50 with CAKI-1, in the assay with CCRF-CEM, in the assay with KM12, with M14, in the assay with MDA-N and with Malme-3M was > 100 µM (inactive) each time. The GI50 with NCI-H226, with NCI-H460, in the assay on OVCAR-8, in the assay on PC-3, with RPMI-8226 and in the assay on RXF 393 was > 100 µM (inactive) each time. Further, the GI50 with SF-539, in the assay with SK-MEL-28, in the assay on SK-OV-3, with SNB-19, in the assay on SW-620 and in the assay on UACC-62 was > 100 µM (inactive) each time. Moreover, the GI50 in the assay on UO-31 was > 100 µM (inactive).

For `COc1c2c(cc3occ(-c4ccc(CC=C(C)C)cc4)c(=O)c13)OC(C)(C)C=C2`, the GI50 with CAKI-1 is > 100 µM (inactive); in the assay with CCRF-CEM it was 12.8 µM (inactive); in the assay on K562, 10.6 µM (inactive); in the assay with KM12 it was 41.4 µM (inactive); in the assay with M14, 34.3 µM (inactive); in the assay with MDA-N it was 44.6 µM (inactive). Further, the GI50 in the assay on Malme-3M is 60.5 µM (inactive); in the assay with NCI-H226 it was 48.1 µM (inactive); in the assay on OVCAR-8 it was 48.4 µM (inactive); with PC-3, 17.1 µM (inactive); in the assay on RPMI-8226, 6.97 µM (inactive); in the assay on RXF 393, 43.4 µM (inactive). The GI50 is > 100 µM (inactive) in the assay with SK-MEL-28; > 100 µM (inactive) in the assay on SK-OV-3; 61.1 µM (inactive) in the assay on SNB-19; 45.6 µM (inactive) in the assay on SW-620; > 100 µM (inactive) in the assay on UACC-62; 33.1 µM (inactive) in the assay on UO-31.

In the case of `COc1cccc(C(=O)C(O)c2cccc(OC)c2OC)c1OC` (centres undefined), the GI50 in the assay on CAKI-1, in the assay with CCRF-CEM, in the assay with KM12, with M14, in the assay with MDA-N and in the assay on Malme-3M was > 100 µM (inactive) in each case. In addition, the GI50 with NCI-H226, with NCI-H460, in the assay with OVCAR-8, in the assay with PC-3, with RPMI-8226 and in the assay on RXF 393 was > 100 µM (inactive) each time. Besides, the GI50 in the assay on SF-539, in the assay with SK-MEL-28, in the assay with SK-OV-3, in the assay on SNB-19, with SW-620 and in the assay on UACC-62 was > 100 µM (inactive) each time. The GI50 in the assay with UO-31 is > 100 µM (inactive).

For the compound `COc1cccc2c1OC(c1cccc3ccccc13)C([N+](=O)[O-])=C2` (centres undefined), the GI50 is 2.33 µM (inactive) in the assay on CAKI-1; 0.312 µM (active) with CCRF-CEM; 0.685 µM (active) in the assay on K562; 1.63 µM (inactive) in the assay with KM12; 1.31 µM (inactive) with M14; 1.93 µM (inactive) in the assay with MDA-N. Besides, the GI50 with Malme-3M was 1.75 µM (inactive); with NCI-H226, 2 µM (inactive); with NCI-H460, 1.9 µM (inactive); in the assay with OVCAR-8 it was 4.24 µM (inactive); with PC-3, 0.902 µM (active); with RPMI-8226 it was 3.45 µM (inactive). For the same compound, the GI50 in the assay on RXF 393 is 1.31 µM (inactive); in the assay with SK-MEL-28, 1.53 µM (inactive); in the assay with SK-OV-3, 3.11 µM (inactive); in the assay on SNB-19 it was 1.53 µM (inactive); with UACC-62, 1.08 µM (active); in the assay on UO-31, 1.44 µM (inactive).

On to `COc1cccc2cc(C(N)=O)c(=N)oc12`, for which the GI50 is 39.4 µM (inactive) in the assay on CAKI-1; 40.6 µM (inactive) with CCRF-CEM; > 100 µM (inactive) with K562; 42.6 µM (inactive) with KM12; 46.6 µM (inactive) in the assay on M14; 59.7 µM (inactive) in the assay with MDA-N. The GI50 in the assay on Malme-3M is 19.2 µM (inactive); with NCI-H226, 96.2 µM (inactive); in the assay on NCI-H460, 37.2 µM (inactive); with OVCAR-8, 50 µM (inactive); with PC-3, 65.3 µM (inactive); with RPMI-8226, 90.2 µM (inactive). The GI50 was 70.5 µM (inactive) in the assay with RXF 393; 41.5 µM (inactive) with SF-539; 46.5 µM (inactive) in the assay on SK-MEL-28; 49.9 µM (inactive) in the assay on SK-OV-3; 82 µM (inactive) in the assay with SNB-19; 99.1 µM (inactive) with SW-620. Besides, in the assay on UACC-62, the GI50 was 31.3 µM (inactive).

As to `N#CCCC1C(C#N)C2CC1C1C3C=CC(C3)C21` (centres undefined), the GI50 in the assay with CAKI-1, in the assay with CCRF-CEM, in the assay on K562, in the assay on KM12, in the assay on M14 and in the assay with MDA-N was > 100 µM (inactive) in each case. Besides, the GI50 is > 100 µM (inactive) in the assay on Malme-3M; > 100 µM (inactive) with NCI-H226; > 100 µM (inactive) in the assay with OVCAR-8; > 100 µM (inactive) in the assay on PC-3; > 100 µM (inactive) in the assay with RPMI-8226; 63.4 µM (inactive) with RXF 393. The GI50 in the assay with SK-MEL-28, in the assay with SK-OV-3, in the assay on SNB-19, with SW-620, with UACC-62 and in the assay on UO-31 was > 100 µM (inactive) throughout.

As to `CCn1cc2c(=O)n3ncn(-c4ccc(Br)cc4)c3nc2n1`, the GI50 in the assay on CAKI-1 was 0.942 µM (active); with CCRF-CEM, > 100 µM (inactive); in the assay on K562, > 100 µM (inactive); in the assay on KM12, > 100 µM (inactive); in the assay on M14, > 100 µM (inactive); in the assay with MDA-N, > 100 µM (inactive). For the same compound, the GI50 with Malme-3M was > 100 µM (inactive); with NCI-H226, > 100 µM (inactive); in the assay on OVCAR-8, 78.9 µM (inactive); with PC-3, > 100 µM (inactive); in the assay with RPMI-8226, 40.3 µM (inactive); with RXF 393, > 100 µM (inactive). In addition, the GI50 is > 100 µM (inactive) with SK-MEL-28; > 100 µM (inactive) in the assay on SK-OV-3; 49.9 µM (inactive) in the assay on SNB-19; > 100 µM (inactive) in the assay with SW-620; > 100 µM (inactive) in the assay on UACC-62; > 100 µM (inactive) in the assay on UO-31.

In the case of `O=c1[nH]nc(Cc2ccc(Cl)cc2)n1/N=C\CC/C=N\n1c(Cc2ccc(Cl)cc2)n[nH]c1=O`, the GI50 in the assay with CAKI-1 was > 56 µM (inactive); in the assay with K562 it was > 88.7 µM (inactive); in the assay on KM12, > 100 µM (inactive); in the assay on M14, 32.8 µM (inactive); in the assay with MDA-N it was > 50.9 µM (inactive); in the assay on Malme-3M, 24.3 µM (inactive). In addition, the GI50 in the assay with NCI-H226 was 18.4 µM (inactive); in the assay with NCI-H460 it was > 100 µM (inactive); in the assay with OVCAR-8, 14 µM (inactive); in the assay on PC-3 it was > 51.9 µM (inactive); in the assay with RPMI-8226, > 33.3 µM (inactive); with RXF 393, 15.1 µM (inactive). Also, the GI50 in the assay on SF-539 is 8.49 µM (inactive); with SK-MEL-28, 23.6 µM (inactive); in the assay on SK-OV-3, 31.5 µM (inactive); in the assay on SNB-19, 32.9 µM (inactive); in the assay on SW-620, > 62.2 µM (inactive); in the assay with UACC-62, 10.9 µM (inactive). In addition, in the assay with UO-31, the GI50 was > 100 µM (inactive).

As for `CC(=O)Oc1c2ccsc2c(OC(C)=O)c2ccsc12`, the GI50 with CAKI-1 is 2.11 µM (inactive); in the assay on CCRF-CEM it was 0.859 µM (active); in the assay on KM12 it was 1.67 µM (inactive); in the assay on M14, 0.269 µM (active); in the assay on MDA-N, 0.12 µM (active); with Malme-3M it was 0.286 µM (active). For the same compound, the GI50 in the assay with NCI-H226 is 2.54 µM (inactive); in the assay with NCI-H460, 1.81 µM (inactive); in the assay with OVCAR-8 it was 0.337 µM (active); in the assay with PC-3, 0.164 µM (active); with RPMI-8226 it was 6.56 µM (inactive); in the assay on RXF 393, 0.0172 µM (active). Moreover, the GI50 was 0.294 µM (active) in the assay with SF-539; 0.329 µM (active) in the assay with SK-MEL-28; 2.86 µM (inactive) in the assay on SK-OV-3; 1.47 µM (inactive) in the assay on SNB-19; 1.08 µM (active) in the assay with SW-620; 1.59 µM (inactive) with UACC-62. Also, the GI50 in the assay with UO-31 is 1.33 µM (inactive).

As a reminder, the GI50 is the concentration at which growth is held to half of that of the control.
